Reference: patent publication US7148014B2, “Methods of inhibiting phagocytosis” (University of Pennsylvania, priority 1993, dated 2006)

Experiments:
[1] = tested on: Syk mRNA; test: RT-PCR / Southern hybridization of Syk mRNA in monocytes; format: cell-based, human; conditions: 2 days
Experimental: FIG. 8. Effect of Syk antisense ODNs on Syk mRNA in monocytes. Total RNA was isolated from monocytes (1×10^5 cells/ml) treated with complexes of 4 μg/ml of LIPOFECTAMINE and the ODNs (1.0 μM each of the linear control or the linear Syk antisense ODN, or 0.2 μM each of the stem-loop control or the stem-loop Syk antisense ODN) for 2 days, and cDNA was synthesized from total RNA with random hexanucleotide primers. PCR was performed with Syk cDNA as templates with two Syk primers (Syk-H and Syk-M). PCR products were analyzed by Southern hybridization and hybridized bands were visualized by chemiluminescent detection reagents.
(§1) Antisense or scrambled control ODNs were modified to be protected from nucleases. One phosphodiester backbone at the 5-prime terminus and two at the 3-prime terminus were modified with phosphorothioate. Prediction of secondary structures of Syk mRNA (Law et al, J. Biol. Chem. 269:12310 (1994)) and ODNs were carried out with the MacDNASIS program (Hitachi Software, San Bruno, Calif.) on a Macintosh computer. Linear 17 mer Syk antisense ODN, having the sequence of 5′-[…]-3′ (SEQ ID NO:9), targets the area surrounding the translation initiation codon of Syk mRNA. Stem-loop Syk antisense ODN is a 57 mer containing sequences complementary to three different target sites, target I (the area of the translation initiation, nucleotide no. 159 to 173) , target II (451 to 463) , and target III (802 to 816) of Syk mRNA (Law et al, J. Biol. Chem. 269:12310 (1994)) (FIG. 5). The stem-loop Syk antisense ODN forms a stem and loop structure by itself and was designed to contain minimal intramolecular secondary structures in the loop domain (FIG. 6) . The sequence of the stem-loop Syk antisense ODN is 5′ - […] C-3′ (SEQ ID NO:10). Linear 17 mer control ODN has a random sequence of 5′-[…]-3′ (SEQ ID NO:11). Stem-loop 61 mer control ODN has a random sequence of 5′ -[…]- 3′ (SEQ ID NO:12) within the loop domain. The linear and stem-loop control ODNs were also modified at both the 5-prime and 3-prime termini by phosphorothioates. Preparation of liposomes: One μg each of the control scrambled phosphodiester ODNs, the linear and stem-loop Syk antisense ODNs in 50 μl of PBS were incubated with 4 μg (2 μl) of LIPOFECTAMINE™ (GIBCO BRL, Life Technologies, Inc. Gaithersburg, Md.). The ODN-liposome complexes were allowed to form at the room temperature for 45 min. Monocytes isolation and culture: Peripheral blood mononuclear cells from healthy individuals were isolated by a standard adherence procedure (Darby et al, J. Immunol. 152:5429 (1994)). Briefly, the heparinized blood was centrifuged on Ficoll-Hypaque (Lymphocyte Separation Medium; Organon Teknika, Durham, N.C.) and interface cells were washed twice in PBS. […]

[2] = tested on: FcγRIIA mediated phagocytosis in monocytes; test: Phagocytosis of IgG-sensitized RBCs (EA) by cultured monocytes treated with ODN-liposome complexes; format: cell-based, human; conditions: for phagocytic index (PI): untreated PI 220±8.8
Experimental: Monocytes (1×10^5 cells/ml) were incubated with complexes of 4 μg/ml of LIPOFECTAMINE and ODNs (1.0 μM each of the linear control or the linear Syk antisense ODNs, or 0.2 μM each of the stem-loop control or the stem-loop Syk antisense ODN) for 2 days, and the phagocytosis of IgG-sensitized red blood cells (EA) was examined. Phagocytic index (PI)=number of ingested RBCs/100 cells. Each bar represents the mean±SEM of three separate experiments.
as §1, with “PBS. Mononuclear cells were resuspended in complete medium containing RPMI 1640 (GIBCO BRL, Life Technologies, Inc. Gaithersburg, Md.) with 10% heat-inactivated FCS and 2 mM L-glutamine. Cells were allowed to adhere at 37° C. onto tissue culture flasks precoated with FCS. After 45 to 90 min non-adherent cells were removed with extensive washing in HBSS. Cells were harvested by vigorous agitation. The yield of monocytes ranged from 2–6×10^7 cells/500 ml of blood. Monocytes were routinely more than 98% viable judged by trypan blue exclusion. Isolated monocytes were maintained in RPMI 1640 supplemented with L-glutamine (2 mM) and 10% heat-inactivated FCS at 37° C. with 5% CO2. Oligodeoxynucleotides treatment of cells. 1×10^5 Monocytes were incubated with ODN-liposome complexes containing 2 μg/ml of LIPOFECTAMINE and 0.5 μM of the linear control, 0.5 μM of the linear Syk antisense ODN or 0.1 μM of the stem-loop control, 0.1 μM of the stem-loop Syk antisense ODN in 0.3 ml of RPMI 1640 medium without FCS in a 24-well plate (Falcon; Becton Dickinson Labware, Lincoln Park, N.J.) at 37° C. for 4 h. Medium was added to a 1 ml final volume with RPMI 1640 containing 10% FCS and cells were then incubated at 37° C. for 2 days.” for “PBS.”

[3] = Stability of antisense ODNs to serum nucleases; format: in vitro ADME; conditions: for resistance to serum nucleases: modified with phosphorothioate
[4] = tested on: COS-1 cells transfected with FcγRIIIA-α/γ; test: Binding (rosetting) of EA by transfected COS-1 cells; format: cell-based
Experimental: (§2) FcγRIIIA isoforms, FcγRIIIA-γγ, FcγRIIIA-ζζ, were generated by cotransfection of COS-1 cells with cDNA of γ or ζ as well as cDNA of α. Transfections of cDNAs were carried out with a modified DEAE-Dextran method. Briefly, 300,000 COS-1 cells were seeded on 35 mm well plates 24 hours prior to transfection. Plates of 70 to 80% confluence were washed twice and incubated for 30 minutes with Dulbeco's Modification of Eagle's Medium (DMEM, Gibco BRL, Grand Island, N.Y.) before transfection. Four μg of plasmid DNA (0.5 μg/μl) was slowly added to 1 ml of a transfection buffer containing Nu medium (DMEM with 10% of NuSerum [Collaborative Biomedical, Two Oak Park, Bedford, Mass.], 1 mg/ml of DEAE Dextran and 100 μM chloroquine. The transfection buffer containing DNA was added to COS-1 cells with incubation for 4 hours at 37° C. Cells were then shocked with 10%. DMSO in phosphate buffered saline (PBS) for 2 minutes, washed twice with DMEM and grown in NuSerum supplemented DMEM. Cells were studied 48 hours following transfection.
(§3) Binding and pragocytosis of IgG-sensitized RSCs (EA): Sterile sheep red blood cells (10^9/ml) in calcium and magnesium-free PBS were sensitized by incubation with an equal volume of a subagglutinating titer of rabbit anti-sheep RBC antibody (Cappel Laboratories, Cochranville, Pa.). The IgG-sensitized RBCs (EA) were washed twice with PBS and resuspended to a final concentration of 10^9/ml for overlaying on transfected COS-1 cells. Cells were examined for rosetting (>10 EA per COS-1 cell) and phagocytosis as described previously (Indik et al, J. Clin. Invest. 88:A66 (1991)). For the analysis of phagocytosis, COS-1 cells bound with EA (after three washings) were subjected to a brief hypotonic shock (35 seconds) with hypotonic PBS to remove surface bound EA. The cells were then stained with Wright-Giemsa staining solutions, and phagocytosis (ingested EA) was determined by light microscopy. Results obtained were analyzed by Student's T-test.

[5] = tested on: COS-1 cells transfected with FcγRIIIA-α/γ; test: Phagocytosis of IgG-sensitized RBCs (EA) by transfected COS-1 cells; format: cell-based; conditions: for phagocytic activity restored after washing: pretreated 400 μM
Experimental: as §2, §3

[6] = ODN 1 μM, LIPOFECTAMINE complexes, 2 days
[7] = ODN 0.2 μM, LIPOFECTAMINE complexes, 2 days

## 5′ -ATGGAATCATCTTGGGCATTCATTCGTTCCTCAAAGAAGAATATGAA- 3′ (SEQ ID NO:12) (listed as DNA, chemistry not given here) [stem-loop control, Stem-loop 61 mer scrambled control ODN]
[1]; ODN 0.2 μM
  effect on Syk mRNA: did not reduce
[2]; ODN 0.2 μM
  effect on FcγRIIA mediated phagocytosis: did not significantly affect

## 5′-GCCCAAGATGATTCCAG-3′ (SEQ ID NO:11) (phosphorothioate linkages at both termini, number not given here) [linear control]
[1]; ODN 1.0 μM
  effect on Syk mRNA: did not reduce
[2]; ODN 1 μM
  effect on FcγRIIA mediated phagocytosis: did not significantly affect

## 5′-CGCTGTCAGCCATGCCG-3′ (SEQ ID NO:9) (DNA, backbone and methylation of C not given here; phosphorothioate linkages at both 5' and 3' termini, further chemistry not fully specified) [linear Syk antisense ODN, Linear 17 mer, phosphorothioate-modified termini, targets area surrounding translation initiation codon of human Syk mRNA]
[1]; ODN 1.0 μM
  effect on Syk mRNA: substantially reduced
[2]; [6]
  Phagocytosis reduced by (phagocytic index): 49%
  phagocytic index (PI): 113±12.3
[3]
  resistance to serum nucleases: partial resistance

## N#CC(C#N)=Cc1ccc(O)c(O)c1 [Tyr23, tyrphostin 23]
[4]
  effect on binding of EA: did not affect
[4]; Tyr23 25 μM
  Rosetting (% Cells): 52 ± 9 % Cells
[4]; Tyr23 50 μM
  Rosetting (% Cells): 52 ± 8 % Cells
[4]; Tyr23 100 μM
  Rosetting (% Cells): 49 ± 7 % Cells
[4]; Tyr23 200 μM
  Rosetting (% Cells): 47 ± 5 % Cells
[4]; Tyr23 400 μM
  Rosetting (% Cells): 48 ± 3 % Cells
[4]; Tyr23 400 μM + washing
  Rosetting (% Cells): 44 ± 6 % Cells
[5]; Tyr23 25 μM
  PI (Phagocytic Index): 68 ± 4
[5]; Tyr23 50 μM
  PI (Phagocytic Index): 26 ± 7
[5]; Tyr23 100 μM
  PI (Phagocytic Index): 16 ± 6
[5]; Tyr23 200 μM
  PI (Phagocytic Index): 1.2 ± 1
[5]; Tyr23 400 μM
  PI (Phagocytic Index): 0
[5]; Tyr23 400 μM + washing (3 hr wash)
  PI (Phagocytic Index): 63 ± 7
[5]; dose dependent, p<0.01, read-out: concentration giving 50% inhibition of phagocytosis
  IC50: 25 µM
[5]; p<0.01
  concentration giving complete inhibition of phagocytosis: 200 to 400 µM
[5]; 3 hr wash
  phagocytic activity restored after washing: partially
[5]; overnight wash (data not shown)
  phagocytic activity restored after washing: completely
[5]; pretreated with 400 μM followed by washing
  viability of transfectants on inhibition of phagocytosis: not associated with reduction in viability

## 5′ - GGGGGGGCTGTCAGCCATGCCGTGTCTTGTCTTTGTCGCTTCTTGAGGAGCCCCCC C-3′ (SEQ ID NO:10) (antisense GGGGGGGCTGTCAGCCATGCCGTGTCTTGTCTTTGTCGCTTCTTGAGGAGCCCCCCC; DNA, backbone and methylation of C not given here; stem-loop hairpin, phosphorothioates at both termini, further chemistry not fully specified) [stem-loop Syk antisense ODN, 57 mer stem-loop ODN complementary to three target sites of human Syk mRNA, phosphorothioate-modified termini]
[1]; ODN 0.2 μM
  effect on Syk mRNA: completely eliminated
[2]
  reduction of the phagocytic signal compared with a mixture of three linear antisense oligonucleotides: more dramatically
[2]; [7]
  reduction in phagocytosis (phagocytic index): 89%
  phagocytic index (PI): 24±4.2
[3]; complexed with liposomes
  stability when complexed with liposomes: markedly improved
[3]
  resistance to serum nucleases: partial resistance
[3]; with phosphorothioate modifications
  stability in serum: exceptional stability
